Laboratory results as given in US20170246166A1, “1,2-BENZOTHIAZOLE COMPOUNDS FOR THE TREATMENT OF KIDNEY DISORDERS” (priority 2014, published 2017).
pIC50: −log10 of the molar value.

Legend:
[1] = target: human PKCβ2 (Homo sapiens, UniProt P05771); experiment: PKC isoforms based HTRF KinEASE-STK assay, PKCβ2; assay type: biochemical; details: 25 μM ATP in substrate mix, 30 min
Excerpt: (§1) The purpose of this assay is to evaluate the inhibitory activity of compounds on various PKC isoforms. It has been reported that perturbations in vascular cell homeostasis caused by different PKC isoforms (PKC-α, β1/2, and PKC-δ) are linked to the development of pathologies affecting large vessel (atherosclerosis, cardiomyopathy) and small vessel (retinopathy, nephropathy, and neuropathy) complications. Geraldes, P. and King, G. L., “Activation of Protein Kinase C Isoforms and Its Impact on Diabetic Complications”, Cir.
(§2) Effects of a test compound on the kinase activity of PKCα, β2, δ, ε, ι, and ζ, are determined using a HTRF KINEASE™-STK assay kit (Cisbio) in accordance with the protocol provided by the vendor. It is a general method for measuring Serine/Threonine kinase activities using kinase substrates and a universal detection system. In the current protocol, biotinilated STK1provided in the assay kit is used as the substrate that can be phosphorylated by any PKC isoform. The HTRF KINEASE™-STK assay kit format involves the two steps (Enzymatic step and Detection step) described below. First, the kinase phosphorylates the substrate in the presence of ATP. Second, the detection reagents provided in the assay kit recognize the phosphorylated substrate.

[2] = target: human PKCδ (Homo sapiens, UniProt Q05655); experiment: PKC isoforms based HTRF KinEASE-STK assay, PKCδ; assay type: biochemical; details: 62.5 μM ATP in substrate mix, 40 min
Chain of human PKCδ (Q05655 whole entry, canonical isoform): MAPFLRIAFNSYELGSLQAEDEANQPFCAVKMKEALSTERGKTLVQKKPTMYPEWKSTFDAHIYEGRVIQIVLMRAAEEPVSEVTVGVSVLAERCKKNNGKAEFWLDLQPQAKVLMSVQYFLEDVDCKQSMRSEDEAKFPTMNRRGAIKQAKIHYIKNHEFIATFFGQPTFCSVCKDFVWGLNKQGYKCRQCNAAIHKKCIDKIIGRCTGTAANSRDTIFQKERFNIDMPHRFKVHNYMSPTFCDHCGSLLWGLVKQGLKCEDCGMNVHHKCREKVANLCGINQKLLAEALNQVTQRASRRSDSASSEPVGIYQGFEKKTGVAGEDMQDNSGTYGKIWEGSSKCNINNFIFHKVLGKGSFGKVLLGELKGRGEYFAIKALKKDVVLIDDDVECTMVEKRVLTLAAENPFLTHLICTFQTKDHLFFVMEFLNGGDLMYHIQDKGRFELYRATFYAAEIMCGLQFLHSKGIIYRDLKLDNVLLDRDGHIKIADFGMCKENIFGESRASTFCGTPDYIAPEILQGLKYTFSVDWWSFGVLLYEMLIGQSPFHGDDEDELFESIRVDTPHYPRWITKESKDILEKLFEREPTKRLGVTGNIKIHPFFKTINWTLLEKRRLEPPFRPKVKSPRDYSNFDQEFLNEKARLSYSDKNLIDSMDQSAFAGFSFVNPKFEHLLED
Excerpt: as §1, §2

[3] = target: T1, human PKCε (Homo sapiens, UniProt Q02156); experiment: PKC isoforms based HTRF KinEASE-STK assay, PKCε; assay type: biochemical; details: 25 μM ATP in substrate mix, 30 min
T1 sequence (Q02156 1-737): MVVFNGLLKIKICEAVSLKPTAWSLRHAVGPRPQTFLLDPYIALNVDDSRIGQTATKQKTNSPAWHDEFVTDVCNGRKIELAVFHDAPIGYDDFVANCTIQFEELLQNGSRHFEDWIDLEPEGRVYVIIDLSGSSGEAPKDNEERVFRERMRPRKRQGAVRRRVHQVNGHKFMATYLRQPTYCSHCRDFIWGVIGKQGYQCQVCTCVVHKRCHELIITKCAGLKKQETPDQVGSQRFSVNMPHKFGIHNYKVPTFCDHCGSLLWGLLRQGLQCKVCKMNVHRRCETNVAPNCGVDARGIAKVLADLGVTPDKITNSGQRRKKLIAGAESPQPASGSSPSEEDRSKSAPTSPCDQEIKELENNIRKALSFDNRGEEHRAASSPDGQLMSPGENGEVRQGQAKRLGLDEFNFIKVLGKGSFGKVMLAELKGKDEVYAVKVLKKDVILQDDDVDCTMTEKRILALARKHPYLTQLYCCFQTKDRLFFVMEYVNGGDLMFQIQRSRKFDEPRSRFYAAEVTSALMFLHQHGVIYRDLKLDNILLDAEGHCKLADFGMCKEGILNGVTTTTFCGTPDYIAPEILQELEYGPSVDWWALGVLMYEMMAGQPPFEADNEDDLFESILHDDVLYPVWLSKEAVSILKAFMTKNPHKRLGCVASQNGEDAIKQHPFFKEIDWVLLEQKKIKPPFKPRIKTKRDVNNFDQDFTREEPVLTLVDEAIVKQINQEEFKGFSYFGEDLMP
Excerpt: as §1, §2

[4] = system: PKC; experiment: PKC in vivo target inhibition assay (pleckstrin phosphorylation in blood cells); design: species or system mouse; details: male ICR mice, oral gavage, 2 h after treatment
Description: The purpose of this assay is to evaluate the effects of in vivo administration of a test compound on PKC substrate phosphorylation in blood cells.
Pleckstrin is one of the PKC protein substrates and is primarily expressed in platelets and peripheral blood mononuclear cells (PBMC). Pleckstrin phosphorylation is proportional to PKC activity. The phosphorylation state of the pleckstrin protein in purified platelets and PBMC from mouse blood is analyzed via Western blotting using a primary antibody specific for phosphorylated PKC substrates. This antibody recognizes multiple phosphorylated PKC substrates that include, but are not limited to p-pleckstrin. The p-pleckstrin band is identified based on its molecular weight.
Male ICR mice (Charles River) are dosed by oral gavage with a test compound homogenized in 1% hydroxethylcellulose/0.25% TWEEN® 80, at a concentration range of 0.3-3 mg/mL, depending on dose; thus dosing volume is 10 ml/kg body weight. Staurosporine, dissolved in the same vehicle, may be used as a positive control to verify that the assay is functioning. […]
10% SDS-PAGE is conducted on the cell lysates (30 μg protein loaded per lane), with 130 V for 90 min. […] Intensity of near-infrared fluorescence is proportional to the level of PKC substrate phosphorylation. It is quantitated with ODYSSEY® software. […]

Chain of human PKCβ2 (P05771 1-673 isoform P05771-2): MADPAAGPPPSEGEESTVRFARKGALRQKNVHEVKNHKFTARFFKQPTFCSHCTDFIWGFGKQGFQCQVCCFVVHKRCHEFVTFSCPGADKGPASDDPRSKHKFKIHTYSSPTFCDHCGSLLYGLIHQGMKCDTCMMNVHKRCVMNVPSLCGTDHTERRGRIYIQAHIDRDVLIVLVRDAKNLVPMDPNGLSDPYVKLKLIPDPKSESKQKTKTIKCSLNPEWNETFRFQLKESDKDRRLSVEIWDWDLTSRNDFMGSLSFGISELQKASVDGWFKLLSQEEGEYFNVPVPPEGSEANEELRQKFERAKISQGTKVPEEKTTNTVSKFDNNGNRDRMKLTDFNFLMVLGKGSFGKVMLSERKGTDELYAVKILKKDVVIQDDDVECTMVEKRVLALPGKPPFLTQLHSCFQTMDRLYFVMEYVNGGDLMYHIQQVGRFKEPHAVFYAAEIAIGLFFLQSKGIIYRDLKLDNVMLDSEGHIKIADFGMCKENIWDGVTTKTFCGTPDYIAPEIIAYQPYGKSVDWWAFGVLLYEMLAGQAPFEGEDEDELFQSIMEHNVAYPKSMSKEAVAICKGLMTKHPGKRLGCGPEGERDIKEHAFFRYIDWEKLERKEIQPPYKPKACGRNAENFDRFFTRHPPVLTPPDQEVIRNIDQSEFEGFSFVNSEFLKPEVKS

C[C@@H]1CN(C(=O)c2cc(-c3c(F)cc(O)cc3F)cc3cnsc23)C[C@H](C)N1.Cl [Example 2, 4-(7-{[(3R,5 S)-3,5-DIMETHYLPIPERAZIN-1-YL]CARBONYL}-1,2-BENZOTHIAZOL-5-YL)-3,5-DIFLUOROPHENOL HYDROCHLORIDE]
pIC50 [1]: ~7.29
pIC50 [2]: ~7.17
pIC50 [3]: ~7.66
ID50, pleckstrin phosphorylation, PBMCs ([4]; PBMCs): about 18.03 mg/kg
ID50, pleckstrin phosphorylation, platelets ([4]; platelets): about 11.85 mg/kg
